Tested on: Capsicum frutescens Mill
Experiment: Spray of abiotic elicitors to flowers of field-grown plants; HPLC of phenyl propanoid intermediates and capsaicinoids in harvested fruits
Format: in vivo
Text: The seedlings of Capsicum frutescens Mill were raised in soil bed. The seeds of C. frutescens were collected from wild from BR Hills, […]. The 2 months old seedling plants were transplanted to the soil and grown under controlled conditions to avoid cross-pollination after the onset of flowering. The plants were established well 2 months after transplantation and started to flower by 90 days with proper agronomic practices with regard to irrigation, fertilizer application, weeding and care from major pests and diseases. The abiotic elicitor (Methyl Jasmonate) was purchased from Duchefa Pvt.LTD. Methyl Jasmonate stock solution was prepared and later used at different concentrations (1 mM, 2.5 mM and 5 mM) for spraying to the whole plant containing flowers, completely opened flowers, and braches containing flowers. The flowers of C. frutescens were sprayed with water, which was taken as control. […] The extracted samples were centrifuged at 4000 rpm for 10 minutes. The samples were subjected to High Performance Liquid Chromatography for quantification of phenyl proponoid intermediates and major Capsaicinoids. […] The detection was at 236 nm and flow rate was maintained at 1 ml/min. […] The reagent used was of HPLC grade. The intermediates of phenyl proponoid pathway (Phenylalanine, Cinnamic acid, Coumaric acid, Caffeic acid, Ferulic acid and Vanillylamine) and two major Capsaicinoids (Capsaicin and Dihydrocapsaicin) were purchased from Sigma Co. […] Standard deviation of samples was calculated according to Tukey's method. The seedlings of Capsicum frutescens Mill were raised in soil bed. The seeds of C. frutescens were collected from BR. Hills, […]. The 2 months old seedling plants were transplanted to the soil and grown under controlled conditions to avoid cross-pollination after the onset of flowering. The plants were established well two months after transplantation and started to flower by 90 days with proper agronomic practices with regard to irrigation, fertilizer application, weeding and care from major pests and diseases. […] USA. […] The flowers of C. frutescens were sprayed with water, which was taken as control. […] The extracted samples were centrifuged at 4000 rpm for 10 minutes. The samples were subjected to High Performance Liquid Chromatography for quantification of phenyl proponoid intermediates and major Capsaicinoids. […] The detection was at 236nm and flow rate was maintained at 1 ml/min. […] The reagent used was of HPLC grade. The intermediates of phenyl propanoid pathway (Phenylalanine, Cinnamic acid, Coumaric acid, Caffeic acid, Ferulic acid and Vanillylamine) and two major Capsaicinoids (Capsaicin and Dihydrocapsaicin) were purchased from Sigma Co. […] Standard deviation of samples was calculated according to Tukey's method.

[1] = fruits 25 days after anthesis, 1 mM sprayed
[2] = fruits 25 days after anthesis, 2.5 mM sprayed
[3] = fruits 25 days after anthesis, 5 mM sprayed
[4] = fruits 30 days after anthesis, 1 mM sprayed
[5] = fruits 30 days after anthesis, 2.5 mM sprayed
[6] = fruits 30 days after anthesis, 5 mM sprayed
[7] = fruits 35 days after anthesis, 1 mM sprayed
[8] = fruits 35 days after anthesis, 2.5 mM sprayed
[9] = fruits 35 days after anthesis, 5 mM sprayed
[10] = fruits 40 days after anthesis, 1 mM sprayed
[11] = fruits 40 days after anthesis, 2.5 mM sprayed
[12] = fruits 40 days after anthesis, 5 mM sprayed

## CC/C=C\CC1C(=O)CCC1CC(=O)OC (centres unmarked) [Methyl Jasmonate]
[1]
  Caffeic Acid level: 3 ± 0.9 µM
  Capsaicin level: 17 ± 1.8 µM
  Cinnamic Acid level: 10 ± 1.0 µM
  Coumaric Acid level: 44 ± 3.2 µM
  Dihydrocapsaicin level: 5 ± 0.8 µM
  Ferulic Acid level: 33 ± 1.9 µM
  Phenylalanine level: 388 ± 8.2 µM
  Vanillylamine level: 49 ± 3.4 µM
[2]
  Caffeic Acid level: 3 ± 0.8 µM
  Capsaicin level: 18 ± 1.2 µM
  Cinnamic Acid level: 11 ± 0.8 µM
  Coumaric Acid level: 45 ± 3.8 µM
  Dihydrocapsaicin level: 6 ± 0.5 µM
  Ferulic Acid level: 49 ± 2.5 µM
  Phenylalanine level: 424 ± 9.2 µM
  Vanillylamine level: 63 ± 4.5 µM
[3]
  Caffeic Acid level: 3 ± 0.6 µM
  Capsaicin level: 16 ± 1.4 µM
  Cinnamic Acid level: 9 ± 0.8 µM
  Coumaric Acid level: 42 ± 3.9 µM
  Dihydrocapsaicin level: 7 ± 0.8 µM
  Ferulic Acid level: 48 ± 3.4 µM
  Phenylalanine level: 391 ± 10.0 µM
  Vanillylamine level: 42 ± 2.9 µM
[4]
  Caffeic Acid level: 4 ± 1.1 µM
  Capsaicin level: 41 ± 3.5 µM
  Cinnamic Acid level: 12 ± 0.9 µM
  Coumaric Acid level: 38 ± 3.4 µM
  Dihydrocapsaicin level: 13 ± 1.0 µM
  Ferulic Acid level: 68 ± 5.4 µM
  Phenylalanine level: 563 ± 12.2 µM
  Vanillylamine level: 61 ± 5.4 µM
[5]
  Caffeic Acid level: 12 ± 1.2 µM
  Capsaicin level: 48 ± 3.6 µM
  Cinnamic Acid level: 35 ± 2.1 µM
  Coumaric Acid level: 47 ± 4.2 µM
  Dihydrocapsaicin level: 14 ± 0.9 µM
  Ferulic Acid level: 80 ± 4.5 µM
  Phenylalanine level: 649 ± 8.7 µM
  Vanillylamine level: 96 ± 6.9 µM
[6]
  Caffeic Acid level: 10 ± 0.9 µM
  Capsaicin level: 48 ± 6.8 µM
  Cinnamic Acid level: 27 ± 1.8 µM
  Coumaric Acid level: 45 ± 3.8 µM
  Dihydrocapsaicin level: 13 ± 0.7 µM
  Ferulic Acid level: 73 ± 4.5 µM
  Phenylalanine level: 627 ± 7.4 µM
  Vanillylamine level: 58 ± 5.1 µM
[7]
  Caffeic Acid level: 12 ± 1.2 µM
  Capsaicin level: 36 ± 3.8 µM
  Cinnamic Acid level: 23 ± 1.5 µM
  Coumaric Acid level: 44 ± 4.2 µM
  Dihydrocapsaicin level: 15 ± 1.2 µM
  Ferulic Acid level: 122 ± 8 µM
  Phenylalanine level: 879 ± 5.9 µM
  Vanillylamine level: 111 ± 10.8 µM
[8]
  Caffeic Acid level: 37 ± 3.2 µM
  Cinnamic Acid level: 68 ± 4.5 µM
  Coumaric Acid level: 84 ± 4.1 µM
  Dihydrocapsaicin level: 19 ± 1.3 µM
  Ferulic Acid level: 150 ± 8 µM
  Phenylalanine level: 1052 ± 11 µM
  Vanillylamine level: 107 ± 10.2 µM
[9]
  Caffeic Acid level: 20 ± 1.2 µM
  Capsaicin level: 35 ± 2.9 µM
  Cinnamic Acid level: 36 ± 3.2 µM
  Coumaric Acid level: 59 ± 3.8 µM
  Dihydrocapsaicin level: 12 ± 1.0 µM
  Ferulic Acid level: 121 ± 12 µM
  Phenylalanine level: 921 ± 8.9 µM
  Vanillylamine level: 73 ± 7.1 µM
[10]
  Caffeic Acid level: 9 ± 0.8 µM
  Capsaicin level: 33 ± 2.4 µM
  Cinnamic Acid level: 14 ± 1.2 µM
  Coumaric Acid level: 39 ± 1.9 µM
  Dihydrocapsaicin level: 15 ± 1.2 µM
  Ferulic Acid level: 107 ± 11 µM
  Phenylalanine level: 516 ± 8.4 µM
  Vanillylamine level: 78 ± 6.8 µM
[11]
  Caffeic Acid level: 15 ± 1.2 µM
  Capsaicin level: 42 ± 3.2 µM
  Cinnamic Acid level: 23 ± 1.9 µM
  Coumaric Acid level: 73 ± 2.4 µM
  Dihydrocapsaicin level: 18 ± 1.4 µM
  Ferulic Acid level: 114 ± 12 µM
  Phenylalanine level: 584 ± 9.2 µM
  Vanillylamine level: 98 ± 5.8 µM
[12]
  Caffeic Acid level: 13 ± 1.3 µM
  Capsaicin level: 28 ± 3.8 µM
  Cinnamic Acid level: 20 ± 1.5 µM
  Coumaric Acid level: 44 ± 4.1 µM
  Dihydrocapsaicin level: 11 ± 1.3 µM
  Ferulic Acid level: 67 ± 4.5 µM
  Phenylalanine level: 547 ± 7.4 µM
  Vanillylamine level: 61 ± 5.1 µM

## O=C([O-])c1ccccc1O.[Na+] [Salicylic Acid sodium salt, Salicylic acid sodium salt]
[1]
  Caffeic Acid level: 21 ± 1.0 µM
  Capsaicin level: 16 ± 08 µM
  Cinnamic Acid level: 3.4 ± 0.9 µM
  Coumaric Acid level: 12.0 ± 1.2 µM
  Dihydrocapsaicin level: 5 ± 0.7 µM
  Ferulic Acid level: 31 ± 1.2 µM
  Phenylalanine level: 378 ± 8.2 µM
  Vanillylamine level: 48 ± 1.4 µM
[2]
  Caffeic Acid level: 25 ± 1.1 µM
  Capsaicin level: 17 ± 1.1 µM
  Cinnamic Acid level: 3.9 ± 0.7 µM
  Coumaric Acid level: 15 ± 1.4 µM
  Dihydrocapsaicin level: 5.5 ± 0.6 µM
  Ferulic Acid level: 32 ± 1.4 µM
  Phenylalanine level: 389 ± 9.2 µM
  Vanillylamine level: 49 ± 1.8 µM
[3]
  Caffeic Acid level: 28 ± 1.2 µM
  Capsaicin level: 16 ± 1.1 µM
  Cinnamic Acid level: 3.5 ± 0.6 µM
  Coumaric Acid level: 14 ± 1.2 µM
  Dihydrocapsaicin level: 6 ± 0.7 µM
  Ferulic Acid level: 34 ± 1.9 µM
  Phenylalanine level: 379 ± 10.0 µM
  Vanillylamine level: 47 ± 2.1 µM
[4]
  Caffeic Acid level: 28 ± 1.0 µM
  Capsaicin level: 35 ± 2.4 µM
  Cinnamic Acid level: 4.1 ± 1.1 µM
  Coumaric Acid level: 12 ± 1.1 µM
  Dihydrocapsaicin level: 11 ± 1.1 µM
  Ferulic Acid level: 35 ± 4.1 µM
  Phenylalanine level: 514 ± 12.2 µM
  Vanillylamine level: 60 ± 1.9 µM
[5]
  Caffeic Acid level: 30 ± 1.5 µM
  Capsaicin level: 44 ± 1.1 µM
  Cinnamic Acid level: 4.9 ± 1.5 µM
  Coumaric Acid level: 18 ± 1.2 µM
  Dihydrocapsaicin level: 12 ± 0.1 µM
  Ferulic Acid level: 35 ± 3.9 µM
  Phenylalanine level: 519 ± 8.7 µM
  Vanillylamine level: 67 ± 2.1 µM
[6]
  Caffeic Acid level: 32 ± 1.1 µM
  Capsaicin level: 42 ± 2.8 µM
  Cinnamic Acid level: 4.5 ± 1.1 µM
  Coumaric Acid level: 15 ± 1.2 µM
  Dihydrocapsaicin level: 10 ± 0.6 µM
  Ferulic Acid level: 38 ± 3.4 µM
  Phenylalanine level: 528 ± 7.4 µM
  Vanillylamine level: 65 ± 4.2 µM
[7]
  Caffeic Acid level: 29 ± 1.0 µM
  Capsaicin level: 38 ± 2.8 µM
  Cinnamic Acid level: 18 ± 1.0 µM
  Coumaric Acid level: 24 ± 1.2 µM
  Dihydrocapsaicin level: 15 ± 1.0 µM
  Ferulic Acid level: 64 ± 5 µM
  Phenylalanine level: 778 ± 5.9 µM
  Vanillylamine level: 68 ± 1.9 µM
[8]
  Caffeic Acid level: 42 ± 1.1 µM
  Cinnamic Acid level: 25 ± 1.1 µM
  Coumaric Acid level: 30 ± 1.5 µM
  Dihydrocapsaicin level: 16 ± 1.0 µM
  Ferulic Acid level: 69 ± 6.8 µM
  Phenylalanine level: 789 ± 11 µM
  Vanillylamine level: 77 ± 2.8 µM
Fruits 35 days after anthesis, 2.5 mM sprayed, sodium salt
  Capsaicin level: 39 ± 2.8 µM
[9]
  Caffeic Acid level: 32 ± 1.0 µM
  Capsaicin level: 36 ± 2.1 µM
  Cinnamic Acid level: 24 ± 1.1 µM
  Coumaric Acid level: 21 ± 1.1 µM
  Dihydrocapsaicin level: 15 ± 0.9 µM
  Ferulic Acid level: 65 ± 4.5 µM
  Phenylalanine level: 891 ± 8.9 µM
  Vanillylamine level: 73 ± 3.6 µM
[10]
  Caffeic Acid level: 29 ± 1.1 µM
  Capsaicin level: 31 ± 2.1 µM
  Cinnamic Acid level: 15 ± 1.0 µM
  Coumaric Acid level: 21 ± 1.1 µM
  Dihydrocapsaicin level: 14 ± 1.0 µM
  Ferulic Acid level: 62 ± 5 µM
  Phenylalanine level: 532 ± 8.4 µM
  Vanillylamine level: 64 ± 5.8 µM
[11]
  Caffeic Acid level: 35 ± 1.0 µM
  Capsaicin level: 34 ± 2.8 µM
  Cinnamic Acid level: 23 ± 1.1 µM
  Coumaric Acid level: 29 ± 1.4 µM
  Dihydrocapsaicin level: 15 ± 1.0 µM
  Ferulic Acid level: 65 ± 6 µM
  Phenylalanine level: 549 ± 9.2 µM
  Vanillylamine level: 68 ± 4.8 µM
[12]
  Caffeic Acid level: 34 ± 1.1 µM
  Capsaicin level: 38 ± 3.4 µM
  Cinnamic Acid level: 20 ± 1.0 µM
  Coumaric Acid level: 24 ± 1.5 µM
  Dihydrocapsaicin level: 14 ± 1.1 µM
  Ferulic Acid level: 67 ± 6 µM
  Phenylalanine level: 547 ± 7.4 µM
  Vanillylamine level: 65 ± 6.1 µM
